Data published in the CheMixHub viscosity set.

Experiment: xn = mol fraction of the nth substance listed

O=C[C@H](O)[C@@H](O)[C@H](O[C@@H]1O[C@H](CO)[C@H](O)[C@H](O)[C@H]1O)[C@H](O)CO + O
viscosity [mPa·s]
Details | 100 kPa | 101 kPa
293.15 K, x1 = 0.002 | – | 1.074
293.15 K, x1 = 0.004 | – | 1.155
293.15 K, x1 = 0.005 | – | 1.241
298.15 K, x1 = 0.002 | 0.976 | 0.9875
298.15 K, x1 = 0.004 | – | 1.065
298.15 K, x1 = 0.005 | – | 1.149
303.15 K, x1 = 0.002 | 0.873 | 0.8893
303.15 K, x1 = 0.004 | – | 0.9654
303.15 K, x1 = 0.005 | – | 1.047
308.15 K, x1 = 0.001805 | – | 0.784
308.15 K, x1 = 0.002 | 0.786 | 0.7922
308.15 K, x1 = 0.003683 | – | 0.864
308.15 K, x1 = 0.004 | – | 0.8716
308.15 K, x1 = 0.005 | – | 0.9524
308.15 K, x1 = 0.005432 | – | 0.934
308.15 K, x1 = 0.006317 | – | 0.966
308.15 K, x1 = 0.007218 | – | 1.012
308.15 K, x1 = 0.008098 | – | 1.063
313.15 K, x1 = 0.002 | 0.709 | 0.7014
313.15 K, x1 = 0.004 | – | 0.7822
313.15 K, x1 = 0.005 | – | 0.8636
318.15 K, x1 = 0.001802 | – | 0.601
318.15 K, x1 = 0.002729 | – | 0.621
318.15 K, x1 = 0.003613 | – | 0.642
318.15 K, x1 = 0.004521 | – | 0.67
318.15 K, x1 = 0.006298 | – | 0.725
318.15 K, x1 = 0.007249 | – | 0.757
318.15 K, x1 = 0.01074 | – | 0.885

C=COCCCC + CCOC(=O)c1ccccc1
viscosity [mPa·s], 101 kPa
Details | x2 = 0.0939 | x2 = 0.1857 | x2 = 0.2804 | x2 = 0.3768 | x2 = 0.4748 | x2 = 0.557 | x2 = 0.6781 | x2 = 0.7812 | x2 = 0.8898
303.15 K | 0.438 | 0.499 | 0.573 | 0.663 | 0.769 | 0.877 | 1.061 | 1.25 | 1.482
308.15 K | 0.425 | 0.482 | 0.55 | 0.633 | 0.729 | 0.827 | 0.995 | 1.163 | 1.372
313.15 K | 0.404 | 0.458 | 0.519 | 0.592 | 0.678 | 0.762 | 0.907 | 1.054 | 1.231

O=[N+]([O-])c1ccccc1 + COCCO
Details | viscosity [mPa·s]
298.15 K, 101 kPa, x1 = 0.0511 | 1.561
298.15 K, 101 kPa, x1 = 0.101 | 1.58
298.15 K, 101 kPa, x1 = 0.2028 | 1.624
298.15 K, 101 kPa, x1 = 0.3038 | 1.673
298.15 K, 101 kPa, x1 = 0.4004 | 1.72
298.15 K, 101 kPa, x1 = 0.4502 | 1.743
298.15 K, 101 kPa, x1 = 0.5003 | 1.764
298.15 K, 101 kPa, x1 = 0.5524 | 1.785
298.15 K, 101 kPa, x1 = 0.6001 | 1.801
298.15 K, 101 kPa, x1 = 0.6981 | 1.829
298.15 K, 101 kPa, x1 = 0.7856 | 1.847
298.15 K, 101 kPa, x1 = 0.8931 | 1.85
298.15 K, 101 kPa, x1 = 0.9407 | 1.839
303.15 K, 101.33 kPa, x2 = 0.132 | 1.553
303.15 K, 101.33 kPa, x2 = 0.2148 | 1.514
303.15 K, 101.33 kPa, x2 = 0.2725 | 1.49
303.15 K, 101.33 kPa, x2 = 0.3929 | 1.453
303.15 K, 101.33 kPa, x2 = 0.5243 | 1.428
303.15 K, 101.33 kPa, x2 = 0.5584 | 1.425
303.15 K, 101.33 kPa, x2 = 0.7423 | 1.409
303.15 K, 101.33 kPa, x2 = 0.8512 | 1.397
303.15 K, 101.33 kPa, x2 = 0.9147 | 1.391

CC12CC3CC(C)(C1)CC(C)(C3)C2 + OCC1CCCCC1
Details | viscosity [mPa·s]
303.15 K, 100 kPa, x2 = 0.801 | 10.65

ClC(Cl)=C(Cl)Cl + CCCCO
Details | viscosity [mPa·s]
298.15 K, 101.3 kPa, x1 = 0.6759 | 1.045

C1CCC2CCCCC2C1 (stereo unspecified) + OCC1CC1
viscosity [mPa·s], 101 kPa
Details | x2 = 0.0988 | x2 = 0.2017 | x2 = 0.2994 | x2 = 0.4008 | x2 = 0.5004 | x2 = 0.6011 | x2 = 0.7007 | x2 = 0.8009 | x2 = 0.8994
293.15 K | 2.377 | 2.408 | 2.471 | 2.554 | 2.676 | 2.846 | 3.024 | 3.244 | 3.581
298.15 K | 2.149 | 2.17 | 2.217 | 2.282 | 2.378 | 2.517 | 2.662 | 2.84 | 3.12
303.15 K | 1.952 | 1.965 | 2.001 | 2.05 | 2.126 | 2.24 | 2.356 | 2.502 | 2.736
308.15 K | 1.781 | 1.787 | 1.814 | 1.85 | 1.91 | 2.003 | 2.097 | 2.215 | 2.411
313.15 K | 1.63 | 1.633 | 1.651 | 1.678 | 1.724 | 1.799 | 1.874 | 1.971 | 2.135
318.15 K | 1.499 | 1.497 | 1.509 | 1.527 | 1.562 | 1.623 | 1.683 | 1.762 | 1.899
323.15 K | 1.382 | 1.358 | 1.383 | 1.396 | 1.421 | 1.47 | 1.518 | 1.581 | 1.697
